# Several values for one entry are separate records, joined by “and”; a condition that tells them apart may be missing. Identical values can stand only once.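 Following 48 hours of exposure in 96-well plates, responses at five concentrations were used to interpolate endpoints linearly. The concentration for 50% growth inhibition is given as GI50.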 Activity calls are given as the source filed them. No stated cut-off is given here; in the data, active = GI50 up to about 1.1 µM and inactive = higher.
# Key:
# Assay in all cases: NCI tumour cell line growth inhibition, 48 h
# [1] = test system: 786-0
# [2] = test system: A498
# [3] = test system: A549
# [4] = test system: ACHN
# [5] = test system: CAKI-1
# [6] = test system: CCRF-CEM
# [7] = test system: COLO 205
# [8] = test system: DU-145
# [9] = test system: EKVX
# [10] = test system: HCC 2998
# [11] = test system: HCT-116
# [12] = test system: HCT-15
# [13] = test system: HL-60
# [14] = test system: HOP-62
# [15] = test system: HOP-92
# [16] = test system: HT-29
# [17] = test system: Hs-578T
# [18] = test system: IGROV-1
# [19] = test system: K562
# [20] = test system: KM12
# [21] = test system: LOX IMVI
# [22] = test system: MDA-MB-231
# [23] = test system: MDA-MB-435
# [24] = test system: MDA-N
# [25] = test system: MOLT-4
# [26] = test system: Malme-3M
# [27] = test system: NCI-H226
# [28] = test system: NCI-H23
# [29] = test system: NCI-H460
# [30] = test system: NCI-H522
# [31] = test system: NCI/ADR-RES
# [32] = test system: OVCAR-4
# [33] = test system: OVCAR-5
# [34] = test system: OVCAR-8
# [35] = test system: PC-3
# [36] = test system: RPMI-8226
# [37] = test system: RXF 393
# [38] = test system: SF-268
# [39] = test system: SF-295
# [40] = test system: SF-539
# [41] = test system: SK-MEL-28
# [42] = test system: SK-MEL-2
# [43] = test system: SK-MEL-5
# [44] = test system: SK-OV-3
# [45] = test system: SN12C
# [46] = test system: SNB-19
# [47] = test system: SNB-75
# [48] = test system: SR
# [49] = test system: SW-620
# [50] = test system: T47D
# [51] = test system: TK-10
# [52] = test system: U-251
# [53] = test system: UACC-257
# [54] = test system: UACC-62
# [55] = test system: UO-31
# [56] = test system: M14
# [57] = test system: MCF7
# [58] = test system: OVCAR-3
structure (smiles),measurement,setting,value
c1ccc(/N=C2\SC(=NNc3ccccc3)S\C2=N/c2ccccc2)cc1,GI50,[1],> 100 µM (inactive)
same,GI50,[2],> 100 µM (inactive)
same,GI50,[3],25.2 µM (inactive)
same,GI50,[4],> 100 µM (inactive)
same,GI50,[5],> 100 µM (inactive)
same,GI50,[6],> 100 µM (inactive)
same,GI50,[7],28.7 µM (inactive)
same,GI50,[8],62.2 µM (inactive)
same,GI50,[9],> 100 µM (inactive)
same,GI50,[10],37.8 µM (inactive)
same,GI50,[11],50.4 µM (inactive)
same,GI50,[12],> 100 µM
same,GI50,[13],> 100 µM (inactive)
same,GI50,[14],44.5 µM (inactive)
same,GI50,[15],70.8 µM (inactive)
same,GI50,[16],45.4 µM (inactive)
same,GI50,[17],32.8 µM (inactive)
same,GI50,[18],54.2 µM (inactive)
same,GI50,[19],> 100 µM (inactive)
same,GI50,[20],6.12 µM (inactive)
same,GI50,[21],13 µM (inactive)
same,GI50,[22],> 100 µM (inactive)
same,GI50,[23],35.6 µM (inactive)
same,GI50,[24],77.6 µM (inactive)
same,GI50,[25],> 100 µM (inactive)
same,GI50,[26],> 100 µM (inactive)
same,GI50,[27],48.1 µM (inactive)
same,GI50,[28],> 100 µM (inactive)
same,GI50,[29],15.5 µM (inactive)
same,GI50,[30],15.3 µM (inactive)
same,GI50,[31],40.5 µM (inactive)
same,GI50,[32],> 100 µM (inactive)
same,GI50,[33],98.2 µM (inactive)
same,GI50,[34],> 100 µM (inactive)
same,GI50,[35],19.5 µM (inactive)
same,GI50,[36],> 100 µM (inactive)
same,GI50,[37],7.66 µM (inactive)
same,GI50,[38],> 100 µM (inactive)
same,GI50,[39],25.6 µM (inactive)
same,GI50,[40],62.5 µM (inactive)
same,GI50,[41],> 100 µM (inactive)
same,GI50,[42],8.18 µM (inactive)
same,GI50,[43],44.9 µM (inactive)
same,GI50,[44],> 100 µM (inactive)
same,GI50,[45],79.3 µM (inactive)
same,GI50,[46],72.6 µM (inactive)
same,GI50,[47],85.7 µM (inactive)
same,GI50,[48],> 100 µM (inactive)
same,GI50,[49],> 100 µM (inactive)
same,GI50,[50],74.1 µM (inactive)
same,GI50,[51],> 100 µM (inactive)
same,GI50,[52],38.1 µM (inactive)
same,GI50,[53],65.5 µM (inactive)
same,GI50,[54],4.13 µM (inactive)
same,GI50,[55],> 100 µM (inactive)
O=[N+]([O-])c1ccc(OC2CC3C4C=CC3C2C4)c([N+](=O)[O-])c1 (stereo not drawn),GI50,[1],24.6 µM (inactive) and > 31.6 µM (inactive)
same,GI50,[3],31 µM (inactive) and 33.3 µM (inactive)
same,GI50,[4],37.4 µM (inactive) and > 31.6 µM (inactive)
same,GI50,[5],29.2 µM (inactive) and > 31.6 µM (inactive)
same,GI50,[7],54 µM (inactive) and > 31.6 µM (inactive)
same,GI50,[8],45.8 µM (inactive) and > 31.6 µM (inactive)
same,GI50,[14],45 µM (inactive) and > 31.6 µM (inactive)
same,GI50,[17],33.7 µM (inactive) and > 31.6 µM (inactive)
same,GI50,[19],30.8 µM (inactive) and > 31.6 µM (inactive)
same,GI50,[56],21.6 µM (inactive) and > 31.6 µM (inactive)
same,GI50,[57],> 100 µM (inactive) and 61.4 µM (inactive)
same,GI50,[23],> 31.6 µM (inactive) and 24.3 µM (inactive)
same,GI50,[26],31.4 µM (inactive) and 34.8 µM (inactive)
same,GI50,[27],> 31.6 µM (inactive) and 42 µM (inactive)
same,GI50,[30],43.6 µM (inactive) and > 31.6 µM (inactive)
same,GI50,[58],43.5 µM (inactive) and 29.4 µM (inactive)
same,GI50,[32],22.8 µM (inactive) and > 31.6 µM (inactive)
same,GI50,[34],39.2 µM (inactive) and > 31.6 µM (inactive)
same,GI50,[36],0.0465 µM (active)
same,GI50,[37],42.6 µM (inactive) and > 31.6 µM (inactive)
same,GI50,[39],16.5 µM (inactive) and > 31.6 µM (inactive)
same,GI50,[40],> 31.6 µM (inactive) and 26.3 µM (inactive)
same,GI50,[43],39.8 µM (inactive) and 21 µM (inactive)
same,GI50,[46],32.3 µM (inactive) and > 31.6 µM (inactive)
same,GI50,[48],> 10 µM (inactive)
same,GI50,[51],> 31.6 µM (inactive) and 33.7 µM (inactive)
same,GI50,[52],37.6 µM (inactive) and > 31.6 µM (inactive)
same,GI50,[53],20.9 µM (inactive) and > 31.6 µM (inactive)
CN1C(=O)CC2CCCN2C1=O (stereo not drawn),GI50,[1],> 100 µM (inactive)
same,GI50,[2],> 100 µM (inactive)
same,GI50,[3],> 100 µM (inactive)
same,GI50,[4],> 100 µM (inactive)
same,GI50,[5],> 100 µM (inactive)
same,GI50,[6],4.27 µM (inactive)
same,GI50,[7],> 100 µM (inactive)
same,GI50,[8],> 100 µM (inactive)
same,GI50,[9],> 100 µM (inactive)
same,GI50,[10],> 100 µM (inactive)
same,GI50,[12],> 100 µM
same,GI50,[14],> 100 µM (inactive)
same,GI50,[15],86.9 µM (inactive)
same,GI50,[16],> 100 µM (inactive)
same,GI50,[17],> 100 µM (inactive)
same,GI50,[18],> 100 µM (inactive)
same,GI50,[19],> 100 µM (inactive)
same,GI50,[20],> 100 µM (inactive)
same,GI50,[21],> 100 µM (inactive)
same,GI50,[56],> 100 µM (inactive)
same,GI50,[57],> 100 µM (inactive)
same,GI50,[22],> 100 µM (inactive)
same,GI50,[23],> 100 µM (inactive)
same,GI50,[24],> 100 µM (inactive)
same,GI50,[25],> 100 µM (inactive)
same,GI50,[26],> 100 µM (inactive)
same,GI50,[27],> 100 µM (inactive)
same,GI50,[28],> 100 µM (inactive)
same,GI50,[29],> 100 µM (inactive)
same,GI50,[30],> 100 µM (inactive)
same,GI50,[31],> 100 µM (inactive)
same,GI50,[58],> 100 µM (inactive)
same,GI50,[32],> 100 µM (inactive)
same,GI50,[33],> 100 µM (inactive)
same,GI50,[34],> 100 µM (inactive)
same,GI50,[35],> 100 µM (inactive)
same,GI50,[36],> 100 µM (inactive)
same,GI50,[37],> 100 µM (inactive)
same,GI50,[38],> 100 µM (inactive)
same,GI50,[39],> 100 µM (inactive)
same,GI50,[40],> 100 µM (inactive)
same,GI50,[41],5.09 µM (inactive)
same,GI50,[42],> 100 µM (inactive)
same,GI50,[43],> 100 µM (inactive)
same,GI50,[44],> 100 µM (inactive)
same,GI50,[46],> 100 µM (inactive)
same,GI50,[47],> 100 µM (inactive)
same,GI50,[48],> 100 µM (inactive)
same,GI50,[49],> 100 µM (inactive)
same,GI50,[50],> 100 µM (inactive)
same,GI50,[51],> 100 µM (inactive)
same,GI50,[52],> 100 µM (inactive)
same,GI50,[53],> 100 µM (inactive)
same,GI50,[54],> 100 µM (inactive)
same,GI50,[55],> 100 µM (inactive)

# — ChEMBL document CHEMBL1201862, “PubChem BioAssay data set” (2004)
